Laboratory results from US20240174624A1, “CHIRAL N-(1,3,4-OXADIAZOLE-2-YL)PHENYL CARBOXYLIC ACID AMIDES AND THEIR USE AS HERBICIDES” (Bayer Aktiengesellschaft, priority 2021, published 2024).

Legend:
[1] = system: ECHCG; assay: Pre-emergence herbicidal action; type: in vivo, Echinochloa crus-galli; settings: scored after 3 weeks
Outline: (§1)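 Weed and crop seeds were sown in sandy loam, and WP or EC formulations were sprayed onto the covering soil at 600 to 800 l/ha water with 0.2% wetting agent. After 3 weeks in a greenhouse, damage was scored visually against untreated controls as percent activity (100% = plants dead).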

[2] = system: PHBPU; assay: Post-emergence herbicidal action; type: in vivo, Pharbitis purpurea; settings: assessed after about 3 weeks
Procedure: (§2) Seeds of monocotyledonous and dicotyledonous weed and crop plants are laid out in sandy loam soil in wood-fibre pots, covered with soil and cultivated in a greenhouse under good growth conditions. 2 to 3 weeks after sowing, the test plants are treated at the one-leaf stage. The compounds of the invention, formulated in the form of wettable powders (WP) or as emulsion concentrates (EC), are then sprayed onto the green parts of the plants in the form of an aqueous suspension or emulsion at a water application rate equating to 600 to 800 l/ha, with addition of 0.2% wetting agent. After the test plants have been left to stand in the greenhouse under optimal growth conditions for about 3 weeks, the action of the preparations is assessed visually in comparison to untreated controls (herbicidal action in percent (%): 100% activity=the plants have died, 0% activity=like control plants). […] The tables below illustrate, in an illustrative manner, the post-emergence herbicidal action of the compounds of the invention, the herbicidal activity being stated in percent.

[3] = system: POLCO; assay: Pre-emergence herbicidal action; type: in vivo, Polygonum convolvulus; settings: 80 g/ha, scored after 3 weeks
Outline: (§3)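 Greenhouse pre-emergence pot test in sandy loam; aqueous WP/EC spray at 600 to 800 l/ha with 0.2% wetting agent applied after sowing. Values are visual % damage at 3 weeks, where 0% equals control plants and 100% means plants died.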

[4] = system: TRZAS; assay: Post-emergence damage to crop plants; type: in vivo, Triticum aestiva; settings: 80 g a.i./ha, comparative experiment
Outline: (§4)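 One-leaf-stage greenhouse plants in sandy loam receive an aqueous spray of WP or EC preparations (600–800 l/ha water, 0.2% wetting agent). Assessment: visual percent damage compared with untreated controls after about 3 weeks.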

[5] = system: AMARE; assay: Post-emergence herbicidal action; type: in vivo, Amaranthus retroflexus; settings: assessed after about 3 weeks
Outline: (§5)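 Greenhouse plants in sandy loam treated at the one-leaf stage, 2–3 weeks after sowing, by spraying WP or EC formulations as aqueous suspension/emulsion at 600–800 l/ha with 0.2% wetting agent. Visual assessment after about 3 weeks versus untreated controls, as percent action (100% = plants dead, 0% = like control).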

[6] = system: ECHCG; assay: Post-emergence herbicidal action; type: in vivo, Echinochloa crus-galli; settings: assessed after about 3 weeks
Outline: as §4

[7] = system: SETVI; assay: Post-emergence herbicidal action; type: in vivo, Setaria viridis; settings: assessed after about 3 weeks
Outline: as §4

[8] = system: ORYZA; assay: Pre-emergence damage to crop plants; type: in vivo, Oryza sativa; settings: 80 g a.i./ha, comparative experiment
Text: (§6) Seeds of monocotyledonous and dicotyledonous weed plants and crop plants are laid out in sandy loam soil in wood-fibre pots and covered with soil. The compounds of the invention, formulated in the form of wettable powders (WP) or as emulsion concentrates (EC), are then applied to the surface of the covering soil in the form of an aqueous suspension or emulsion at a water application rate equivalent to 600 to 800 l/ha, with addition of 0.2% wetting agent. After the treatment, the pots are placed in a greenhouse and kept under good growth conditions for the trial plants. The damage to the test plants is scored visually after a test period of 3 weeks by comparison with untreated controls (herbicidal activity in percent (%): 100% activity=the plants have died, 0% activity=like control plants). […] The tables below illustrate, in an illustrative manner, the post-emergence herbicidal action of the compounds of the invention, the herbicidal activity being stated in percent. In the experiments that follow, the herbicidal action of the compounds of the invention and that of the corresponding known racemic compounds closest from WO2012126932 and WO2018202535 were compared under the above-specified conditions by the pre-emergence and post-emergence method. The example numbers given in the tables relate to the compounds disclosed in the respective documents.

[9] = system: AVEFA; assay: Post-emergence herbicidal action; type: in vivo, Avena fatua; settings: 20 g/ha, assessed after about 3 weeks
Procedure: as §2

[10] = system: SETVI; assay: Pre-emergence herbicidal action; type: in vivo, Setaria viridis; settings: scored after 3 weeks
Outline: as §3

[11] = system: ALOMY; assay: Pre-emergence herbicidal action; type: in vivo, Alopecurus myosuroides; settings: 80 g/ha, scored after 3 weeks
Outline: as §3

[12] = system: VIOTR; assay: Pre-emergence herbicidal action; type: in vivo, Viola tricolor; settings: scored after 3 weeks
Outline: as §1

[13] = system: POLCO; assay: Post-emergence herbicidal action; type: in vivo, Polygonum convolvulus; settings: 20 g/ha, assessed after about 3 weeks
Procedure: as §2

[14] = system: ZEAMX; assay: Pre-emergence damage to crop plants; type: in vivo, Zea mays; settings: 320 g a.i./ha, comparative experiment
Outline: as §3

[15] = system: VERPE; assay: Post-emergence herbicidal action; type: in vivo, Veronica persica; settings: 20 g/ha, assessed after about 3 weeks
Outline: as §4

[16] = system: PHBPU; assay: Pre-emergence herbicidal action; type: in vivo, Pharbitis purpurea; settings: 80 g/ha, scored after 3 weeks
Text: as §6, with “percent.” for “percent. In the experiments that follow, the herbicidal action of the compounds of the invention and that of the corresponding known racemic compounds closest from WO2012126932 and WO2018202535 were compared under the above-specified conditions by the pre-emergence and post-emergence method. The example numbers given in the tables relate to the compounds disclosed in the respective documents.”

[17] = system: AMARE; assay: Pre-emergence herbicidal action; type: in vivo, Amaranthus retroflexus; settings: scored after 3 weeks
Outline: as §1

[18] = system: MATIN; assay: Post-emergence herbicidal action; type: in vivo, Matricaria inodora; settings: assessed after about 3 weeks
Outline: as §5

[19] = system: AVEFA; assay: Pre-emergence herbicidal action; type: in vivo, Avena fatua; settings: 80 g/ha, scored after 3 weeks
Outline: as §3

[20] = system: TRZAS; assay: Pre-emergence damage to crop plants; type: in vivo, Triticum aestiva; settings: 80 g a.i./ha, comparative experiment
Text: as §6

[21] = system: MATIN; assay: Pre-emergence herbicidal action; type: in vivo, Matricaria inodora; settings: scored after 3 weeks
Outline: as §3

[22] = system: VIOTR; assay: Post-emergence herbicidal action; type: in vivo, Viola tricolor; settings: assessed after about 3 weeks
Procedure: as §2, with “percent. In the experiments that follow, the herbicidal action of the compounds of the invention and that of the corresponding known racemic compounds closest from WO2012126932 and WO2018202535 were compared under the above-specified conditions by the pre-emergence and post-emergence method. The example numbers given in the tables relate to the compounds disclosed in the respective documents.” for “percent.”

[23] = system: ZEAMX; assay: Post-emergence damage to crop plants; type: in vivo, Zea mays; settings: 80 g a.i./ha, comparative experiment
Procedure: as §2, with “percent. In the experiments that follow, the herbicidal action of the compounds of the invention and that of the corresponding known racemic compounds closest from WO2012126932 and WO2018202535 were compared under the above-specified conditions by the pre-emergence and post-emergence method. The example numbers given in the tables relate to the compounds disclosed in the respective documents.” for “percent.”

[24] = system: ORYZA; assay: Post-emergence damage to crop plants; type: in vivo, Oryza sativa; settings: 80 g a.i./ha, comparative experiment
Procedure: as §2, with “percent. In the experiments that follow, the herbicidal action of the compounds of the invention and that of the corresponding known racemic compounds closest from WO2012126932 and WO2018202535 were compared under the above-specified conditions by the pre-emergence and post-emergence method. The example numbers given in the tables relate to the compounds disclosed in the respective documents.” for “percent.”

## C[S+]([O-])c1c(C(F)(F)F)ccc(C(=O)Nc2nnco2)c1Cl (stereo in doubt) [Example I-1, 2-chloro-N-(1,3,4-oxadiazol-2-yl)-3-[(S)-methylsulfinyl]-4-(trifluoromethyl)benzamide]
[1]; 5 g/ha
  Pre-emergence action against ECHCG: 90%
[1]; 20 g/ha
  Pre-emergence action against ECHCG: 100%
[1]; 80 g/ha
  Pre-emergence action against ECHCG: 100%
[2]; 5 g/ha
  Post-emergence action against PHBPU: 100%
[2]; 20 g/ha
  Post-emergence action against PHBPU: 100%
[3]
  Pre-emergence action against POLCO: 80%
[4]
  Damage to TRZAS: 60%
[5]; 1.25 g/ha
  Post-emergence action against AMARE: 100%
[5]; 5 g/ha
  Post-emergence action against AMARE: 100%
[5]; 20 g/ha
  Post-emergence action against AMARE: 100%
[6]; 5 g/ha
  Post-emergence action against ECHCG: 100%
[6]; 20 g/ha
  Post-emergence action against ECHCG: 100%
[7]; 5 g/ha
  Post-emergence action against SETVI: 80%
[7]; 20 g/ha
  Post-emergence action against SETVI: 100%
[8]
  Damage to ORYZA: 80%
[9]
  Post-emergence action against AVEFA: 80%
[10]; 20 g/ha
  Pre-emergence action against SETVI: 80%
[10]; 80 g/ha
  Pre-emergence action against SETVI: 100%
[11]
  Pre-emergence action against ALOMY: 80%
[12]; 20 g/ha
  Pre-emergence action against VIOTR: 100%
[12]; 80 g/ha
  Pre-emergence action against VIOTR: 100%
[13]
  Post-emergence action against POLCO: 80%
[14]
  Damage to ZEAMX: 0%
[15]
  Post-emergence action against VERPE: 90%
[16]
  Pre-emergence action against PHBPU: 100%
[17]; 20 g/ha
  Pre-emergence action against AMARE: 100%
[17]; 80 g/ha
  Pre-emergence action against AMARE: 100%
[18]; 5 g/ha
  Post-emergence action against MATIN: 80%
[18]; 20 g/ha
  Post-emergence action against MATIN: 90%
[19]
  Pre-emergence action against AVEFA: 80%
[20]
  Damage to TRZAS: 30%
[21]; 20 g/ha
  Pre-emergence action against MATIN: 100%
[21]; 80 g/ha
  Pre-emergence action against MATIN: 100%
[22]; 1.25 g/ha
  Post-emergence action against VIOTR: 90%
[22]; 5 g/ha
  Post-emergence action against VIOTR: 100%
[22]; 20 g/ha
  Post-emergence action against VIOTR: 100%
[23]
  Damage to ZEAMX: 0%
[24]
  Damage to ORYZA: 70%
